Laboratory results from US11186564B2, “Dual NAV1.2/5HT2a inhibitors for treating CNS disorders” (Sunovion Pharmaceuticals Inc., priority 2016, dated 2021).
pIC50: −log10 of the molar value.

Legend:
[1] = target: human sodium channel NaV1.2 (Homo sapiens, UniProt Q99250); test: NaV1.2 inhibition, automated patch-clamp (Q-Patch HTX), slow inactivated state (state C); format: cell-based; settings: hNaV1.2 CHO cells, slow inactivated state; for pIC50: read-out: NaV1.2 IC50; for inhibition at 10 µM: 10 μM compound, read-out: NaV1.2 (% inh), 10 μM; for inhibition at 1 µM: 1 μM compound, read-out: NaV1.2 (% inh), 1 μM
Chain of human sodium channel NaV1.2 (Q99250 whole entry): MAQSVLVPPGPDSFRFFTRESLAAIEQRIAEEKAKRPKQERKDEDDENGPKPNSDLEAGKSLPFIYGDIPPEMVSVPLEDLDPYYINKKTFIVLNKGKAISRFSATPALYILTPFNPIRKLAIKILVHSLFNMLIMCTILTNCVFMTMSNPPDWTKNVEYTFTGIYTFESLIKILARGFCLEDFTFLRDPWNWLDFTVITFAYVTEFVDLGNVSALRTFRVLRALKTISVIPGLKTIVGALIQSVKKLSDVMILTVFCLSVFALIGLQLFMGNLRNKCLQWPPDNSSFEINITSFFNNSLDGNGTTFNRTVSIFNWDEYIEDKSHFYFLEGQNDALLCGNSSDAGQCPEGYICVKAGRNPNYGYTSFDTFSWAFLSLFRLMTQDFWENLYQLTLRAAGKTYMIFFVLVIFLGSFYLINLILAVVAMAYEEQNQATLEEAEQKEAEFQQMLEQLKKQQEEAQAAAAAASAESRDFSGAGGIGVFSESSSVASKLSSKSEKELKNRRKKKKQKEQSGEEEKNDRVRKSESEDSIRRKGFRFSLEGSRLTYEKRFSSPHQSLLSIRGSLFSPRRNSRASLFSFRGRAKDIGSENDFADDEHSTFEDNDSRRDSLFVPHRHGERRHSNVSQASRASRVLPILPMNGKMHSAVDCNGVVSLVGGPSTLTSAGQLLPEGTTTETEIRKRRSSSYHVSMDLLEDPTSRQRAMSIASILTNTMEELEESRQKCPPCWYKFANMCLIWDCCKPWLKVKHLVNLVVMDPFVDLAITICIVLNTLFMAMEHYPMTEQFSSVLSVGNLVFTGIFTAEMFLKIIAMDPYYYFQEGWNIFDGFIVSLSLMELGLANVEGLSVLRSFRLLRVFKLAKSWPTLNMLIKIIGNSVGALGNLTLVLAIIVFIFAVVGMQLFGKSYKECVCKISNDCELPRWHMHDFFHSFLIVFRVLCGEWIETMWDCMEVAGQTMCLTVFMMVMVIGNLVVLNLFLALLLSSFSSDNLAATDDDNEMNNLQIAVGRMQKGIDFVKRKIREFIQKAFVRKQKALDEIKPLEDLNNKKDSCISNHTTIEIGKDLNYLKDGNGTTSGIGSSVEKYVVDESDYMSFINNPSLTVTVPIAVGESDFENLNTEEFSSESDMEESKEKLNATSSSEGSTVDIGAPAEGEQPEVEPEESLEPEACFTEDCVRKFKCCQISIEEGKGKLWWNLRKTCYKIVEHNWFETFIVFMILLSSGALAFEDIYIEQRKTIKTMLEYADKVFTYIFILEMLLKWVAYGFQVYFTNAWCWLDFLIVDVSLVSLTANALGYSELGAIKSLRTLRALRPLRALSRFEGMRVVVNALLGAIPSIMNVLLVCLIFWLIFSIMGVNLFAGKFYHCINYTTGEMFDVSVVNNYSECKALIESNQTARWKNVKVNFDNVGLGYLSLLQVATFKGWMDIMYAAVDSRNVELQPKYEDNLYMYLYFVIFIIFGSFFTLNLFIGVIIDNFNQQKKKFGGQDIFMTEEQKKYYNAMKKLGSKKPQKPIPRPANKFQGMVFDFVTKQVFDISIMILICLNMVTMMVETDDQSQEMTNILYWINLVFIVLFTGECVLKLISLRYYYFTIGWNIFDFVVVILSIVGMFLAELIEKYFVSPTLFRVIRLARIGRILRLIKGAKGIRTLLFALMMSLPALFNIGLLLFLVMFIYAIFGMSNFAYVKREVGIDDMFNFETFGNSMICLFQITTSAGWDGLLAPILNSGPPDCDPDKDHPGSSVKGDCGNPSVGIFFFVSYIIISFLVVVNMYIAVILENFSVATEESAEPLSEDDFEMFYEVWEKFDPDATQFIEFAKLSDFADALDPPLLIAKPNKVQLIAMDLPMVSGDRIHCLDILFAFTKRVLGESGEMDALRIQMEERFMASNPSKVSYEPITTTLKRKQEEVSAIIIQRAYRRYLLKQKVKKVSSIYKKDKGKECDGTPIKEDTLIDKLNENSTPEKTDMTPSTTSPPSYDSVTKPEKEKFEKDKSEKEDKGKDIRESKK
Method in brief: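 IC50 comes from a least-squares fit of percent inhibition, relative to vehicle, of current in the slow-inactivated state. That state is reached by a 10 s prepulse to −50 mV, then 15 ms at −90 mV, then a 5 ms test pulse to 0 mV. Human NaV1.2 in stable CHO K-1 cells, held at −100 mV, automated patch clamp.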

[2] = target: T1, recombinant human serotonin receptor 5-HT2A (Homo sapiens, UniProt P28223); test: 5-HT2A antagonist Ca2+ assay in CHO-K1 cells (method A aequorin luminescence / method B FLIPR fluorescence); format: cell-based; settings: antagonist mode vs EC80 of reference agonist, method A or B, read-out: 5HT2A IC50
T1 construct: expressed in transfected cells; method B: loaded with Ca2+ dye
T1 sequence (P28223 whole entry): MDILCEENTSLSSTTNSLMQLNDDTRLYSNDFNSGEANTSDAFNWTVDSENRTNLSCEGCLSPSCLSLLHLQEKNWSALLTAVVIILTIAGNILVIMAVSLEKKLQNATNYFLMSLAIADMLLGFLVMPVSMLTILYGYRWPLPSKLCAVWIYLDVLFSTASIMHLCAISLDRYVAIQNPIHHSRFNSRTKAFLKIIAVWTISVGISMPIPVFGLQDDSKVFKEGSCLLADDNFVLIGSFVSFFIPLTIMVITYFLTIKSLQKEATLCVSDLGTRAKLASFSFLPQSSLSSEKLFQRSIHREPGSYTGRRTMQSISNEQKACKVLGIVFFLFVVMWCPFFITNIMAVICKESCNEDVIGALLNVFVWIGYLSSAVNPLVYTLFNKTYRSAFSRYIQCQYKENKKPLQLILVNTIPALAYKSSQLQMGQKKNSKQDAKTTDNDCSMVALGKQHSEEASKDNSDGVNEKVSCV
Method in brief: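 IC50 was obtained by nonlinear regression of percent inhibition of the EC80 agonist Ca2+ response in CHO-K1 cells stably expressing human 5-HT2A. The readout was aequorin luminescence with agonist injected 15 min after compound (A), or Ca2+-dye fluorescence on FLIPR with serotonin as agonist (B).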

Row | inhibition at 10 µM [1] [%] | inhibition at 1 µM [1] [%] | SMILES | pIC50 [1] | pIC50 [2]
1 | – | – | Fc1ccc(O[C@H]2CCN(CC3CCc4cccnc43)C2)cc1 (stereo partly drawn) [Example 8, 7-(((S)-3-(4-fluorophenoxy)pyrrolidin-1-yl)methyl)-6,7-dihydro-5H-cyclopenta[b]pyridine] | 5.13 | 6.01
2 | – | – | c1ccc2c(c1)CCC1(CCN(CC3COc4ccccc43)CC1)O2 (stereo not shown) [Example 409] | 5.55 | 6.03
3 | – | – | c1ccc([C@@H]2COC3(CCN(C[C@H]4CCc5ccccc54)CC3)C2)cc1 (single isomer, unassigned) [Compound 379] | 6.54 | 7.40
4 | 86 | – | COc1ccccc1CCN1CCC2(CCc3ccccc3O2)CC1 [Example 428, 1′-(2-methoxyphenethyl) spiro[chromane-2,4′-piperidine]] | – | 6.72
5 | – | -3 | O=C1c2cccnc2CN1CCN1CCC(Oc2ccc(F)cc2)CC1 [Example 186, 6-(2-(4-(4-fluorophenoxy)piperidin-1-yl)ethyl)-6,7-dihydro-5H-pyrrolo[3,4-b]pyridin-5-one] | – | 8.00
6 | 15 | – | O=C1c2ccccc2CCN1CCN1CCC(Oc2cccnc2)CC1 [Example 192, 2-(2-(4-(pyridin-3-yloxy)piperidin-1-yl)ethyl)-3,4-dihydroisoquinolin-1(2H)-one] | – | 5.55
7 | – | – | OC(COC1CCCCC1)CN1C[C@H]2CC[C@@H](C1)N2c1ccccc1 (stereo partly drawn) [Example 299, 1-(cyclohexyloxy)-3-((1R,5S)-8-phenyl-3,8-diazabicyclo[3.2.1]octan-3-yl)propan-2-ol] | 5.45 | 5.76
8 | – | 1 | COc1ccc2c(c1)C(CN1CCC(Oc3ccncc3)CC1)CC2 (stereo not shown) [Example 117, 4-((1-((6-methoxy-2,3-dihydro-1H-inden-1-yl)methyl)piperidin-4-yl)oxy)pyridine] | – | 6.24
9 | – | – | Nc1ccc2c(c1)C(CN1CCC(Oc3ccc(F)cc3)CC1)CC2 (stereo not shown) [Example 115, 3-((4-(4-fluorophenoxy)piperidin-1-yl)methyl)-2,3-dihydro-1H-inden-5-amine] | 5.59 | > 9.00
10 | 62 | – | COc1ccc(OC2CCN(CCN3CCc4ccccc4C3=O)CC2)cc1 [Example 202, 2-(2-(4-(4-methoxyphenoxy)piperidin-1-yl)ethyl)-3,4-dihydroisoquinolin-1(2H)-one] | – | 6.76
11 | – | – | Cc1ccc(N2CCN(C[C@H](O)COC3CCCCC3)CC2)cc1 [Example 77, (S)-1-(cyclohexyloxy)-3-(4-(p-tolyl)piperazin-1-yl)propan-2-ol] | 5.04 | 6.68
12 | – | – | COc1ccccc1OC1CCN(CC2c3ccccc3CC2(C)C)CC1 (stereo not shown) [Example 100] | 5.59 | 6.15
13 | – | 12 | Fc1ccc(OC2CCN(CCC3CCc4ccncc43)CC2)cc1 (stereo not shown) [Example 174, 7-(2-(4-(4-fluorophenoxy)piperidin-1-yl)ethyl)-6,7-dihydro-5H-cyclopenta[c]pyridine] | – | 8.00
14 | – | – | Cc1cccc(N2CCN(CC3(O)COCc4ccccc43)CC2)c1C (stereo not shown) [Example 56, 4-((4-(2,3-dimethylphenyl)piperazin-1-yl)methyl)isochroman-4-ol] | 6.37 | 6.89
15 | – | 5 | Fc1ccc(OC2CCN(CCC3CCOCC3)CC2)cc1 [Example 170, 4-(4-fluorophenoxy)-1-(2-(tetrahydro-2H-pyran-4-yl)ethyl)piperidine] | – | 5.95
16 | – | 14 | COc1ccccc1O[C@H]1CCN(CC2Cc3cccnc3C2)[C@@H](C)C1 (stereo partly drawn) [Example 150, 6-(((2S,4S)-4-(2-methoxyphenoxy)-2-methylpiperidin-1-yl)methyl)-6,7-dihydro-5H-cyclopenta[b]pyridine] | – | 6.14
17 | – | 23 | c1ccc(CC2CN(CC3CCc4ccccc43)CCO2)cc1 (stereo not shown) [Example 251, 2-benzyl-4-((2,3-dihydro-1H-inden-1-yl)methyl)morpholine] | – | 6.43
18 | – | – | COc1ccc2c(c1)C(CN1CCC(OCc3ccccc3Cl)CC1)CC2 (stereo not shown) [Example 244, 4-((2-chlorobenzyl)oxy)-1-((6-methoxy-2,3-dihydro-1H-inden-1-yl)methyl)piperidine] | 6.80 | 7.22

Row | inhibition at 10 µM [1] [%] | inhibition at 1 µM [1] [%] | SMILES | pIC50 [1] | pIC50 [2]
19 | – | – | COc1ccc2c(c1)C(CN1CCC(NS(=O)(=O)c3ccc(F)cc3)CC1)CC2 (stereo not shown) [Example 250, 4-fluoro-N-(1-((6-methoxy-2,3-dihydro-1H-inden-1-yl)methyl)piperidin-4-yl)benzenesulfonamide] | 6.70 | 7.15
20 | – | 35 | Fc1ccc(OC2CCN(CC3Cc4ccccc4C3)CC2)cc1 [Example 154, 1-((2,3-dihydro-1H-inden-2-yl)methyl)-4-(4-fluorophenoxy)piperidine] | – | 6.77
21 | – | – | COc1ccc2c(c1)C(CN1CCC3(CCc4ccccc4O3)CC1)CC2 (stereo not shown) [Example 402, 1′-((6-methoxy-2,3-dihydro-1H-inden-1-yl)methyl)spiro[chromane-2,4′-piperidine]] | 7.15 | 5.97
22 | – | – | OC(COC1CCCCC1)CN1[C@@H]2C[C@H]1CN(c1ccccc1)C2 (stereo partly drawn) [Example 281, 1-(cyclohexyloxy)-3-((1R,5S)-3-phenyl-3,6-diazabicyclo[3.1.1]heptan-6-yl)propan-2-ol] | 5.75 | 5.87
23 | 52 | – | O[C@H](COC1CCCCC1)CN1C[C@@H]2C[C@H]1CN2Cc1ccccc1 [Example 309, (S)-1-((1S,4S)-5-benzyl-2,5-diazabicyclo[2.2.1]heptan-2-yl)-3-(cyclohexyloxy)propan-2-ol] | – | 5.32
24 | – | – | OC(COC1CCCCC1)CN1CCCC2(CCN(c3ccccc3)C2)C1 (stereo not shown) [Example 356, 1-(cyclohexyloxy)-3-(2-phenyl-2,7-diazaspiro[4.5]decan-7-yl)propan-2-ol] | 6.21 | 6.60
25 | – | – | COc1ccc2c(c1)C(CN1CCC3(CC1)OCc1ccccc13)CC2 (stereo not shown) [Example 390, 1′-((6-methoxy-2,3-dihydro-1H-inden-1-yl)methyl)-3H-spiro[isobenzofuran-1,4′-piperidine]] | 6.23 | 6.12
26 | – | – | c1ccc2c(c1)CCC1(CCN(CC3CCc4ccccc43)CC1)O2 (stereo not shown) [Example 401, 1′-((2,3-dihydro-1H-inden-1-yl)methyl)spiro[chromane-2,4′-piperidine]] | 6.96 | 7.30
27 | – | -2 | O=C1Nc2ccccc2CC12CCN(C[C@H](O)COc1ccccc1)CC2 [Example 445, (S)-1-(2-hydroxy-3-phenoxypropyl)-1′,4′-dihydro-2′H-spiro[piperidine-4,3′-quinolin]-2′-one] | – | 6.52
28 | – | – | OC(COC1CCCCC1)CN1CCN(c2ccccc2)CC1 (stereo not shown) [Example 74, 1-(cyclohexyloxy)-3-(4-phenylpiperazin-1-yl)propan-2-ol] | 4.29 | 7.22
29 | – | – | O[C@@H](COC1CCCCC1)CN1CC2(CC(c3ccccc3)CO2)C1 (stereo partly drawn) [Example 361, (2R)-1-(cyclohexyloxy)-3-(7-phenyl-5-oxa-2-azaspiro[3.4]octan-2-yl)propan-2-ol] | 5.57 | 7.70
30 | – | 12 | N#Cc1ccccc1OC1CCN(CC2CCOc3ccccc32)CC1 (stereo not shown) [Example 161, 2-((1-(chroman-4-ylmethyl)piperidin-4-yl)oxy)benzonitrile] | – | 7.30
31 | – | – | Fc1ccc(OC2CCN(CCC3CCc4cccnc43)CC2)cc1 (stereo not shown) [Example 175, 7-(2-(4-(4-fluorophenoxy)piperidin-1-yl)ethyl)-6,7-dihydro-5H-cyclopenta[b]pyridine] | 6.36 | 8.00
32 | – | – | OC(COC1CCCCC1)CN1CC[C@H]2C[C@@H]1CN2c1ccccc1 (stereo partly drawn) [Example 325, 1-(cyclohexyloxy)-3-((1R,5S)-6-phenyl-2,6-diazabicyclo[3.2.1]octan-2-yl)propan-2-ol] | 6.66 | 6.60
33 | – | – | O[C@H](COC1CCCCC1)CN1CCC2(CCN(c3ccccc3)C2)C1 (stereo partly drawn) [Example 345, (2S)-1-(cyclohexyloxy)-3-(7-phenyl-2,7-diazaspiro[4.4]nonan-2-yl)propan-2-ol] | 5.72 | 6.62
34 | – | – | COc1ccccc1N1CCC2(CCN(CC3CCc4ccccc43)C2)C1 (stereo not shown) [Example 335, 2-((2,3-dihydro-1H-inden-1-yl)methyl)-7-(2-methoxyphenyl)-2,7-diazaspiro[4.4]nonane] | 6.92 | 7.40
35 | – | – | COc1ccc2c(c1)C(CN1CCC(OCc3ccccc3F)CC1)CC2 (stereo not shown) [Example 243, 4-((2-fluorobenzyl)oxy)-1-((6-methoxy-2,3-dihydro-1H-inden-1-yl)methyl)piperidine] | 7.00 | 6.44

Row | SMILES | inhibition at 10 µM [1] [%] | inhibition at 1 µM [1] [%] | pIC50 [1] | pIC50 [2]
36 | O=C1c2ccccc2CCN1CCN1C[C@H]2CC[C@@H](C1)N2c1ccccc1 [Example 297, 2-(2-((1R,5S)-8-phenyl-3,8-diazabicyclo[3.2.1]octan-3-yl)ethyl)-3,4-dihydroisoquinolin-1(2H)-one] | – | -4 | – | < 4.78
37 | CO[C@@H](CCN1CCC(Oc2ccccc2)CC1)c1ccccc1 [Example 230, (S)-1-(3-methoxy-3-phenylpropyl)-4-phenoxypiperidine] | 87 | – | – | 6.41
38 | O[C@@H](CO[C@H]1CCc2ccccc21)CN1CCC(Oc2ccc(F)cc2)CC1 [Example 238, (R)-1-(((S)-2,3-dihydro-1H-inden-1-yl)oxy)-3-(4-(4-fluorophenoxy)piperidin-1-yl)propan-2-ol] | – | 47 | – | 6.62
